Test results reported in patent publication US4882348A, “2-(aminoalkylthio)imidazoles as dopamine-β-hydroxylase inhibitors” (SmithKline Beckman Corporation, priority 1987, dated 1989).

Experiments:
[1] = test system: Spontaneously hypertensive rats; assay: mean arterial blood pressure in spontaneously hypertensive rats; type: in vivo; conditions: 50 mg/kg intraperitoneally
Procedure: Spontaneously hypertensive rats were treated with 2-(2-aminoethylthio) 1-(3,5 difluorobenzyl)imidazole at a dose of 50 mg/kg intraperitoneally, and mean arterial blood pressure was monitored for four hours using an indwelling cannula in the femoral artery. […] The maximal blood pressure reduction was approximately 10 mmHg.

DBH = target: T1, DBH (Bos taurus, UniProt P15101); assay: in vitro DBH inhibition, conversion of tyramine to octopamine; type: biochemical; conditions: octopamine assayed as p-hydroxybenzaldehyde after sodium periodate oxidation, absorbance at 330 nm; read-out: IC50 (molar concentration of compound at which DBH activity was halved)
T1 sequence (P15101 1-610): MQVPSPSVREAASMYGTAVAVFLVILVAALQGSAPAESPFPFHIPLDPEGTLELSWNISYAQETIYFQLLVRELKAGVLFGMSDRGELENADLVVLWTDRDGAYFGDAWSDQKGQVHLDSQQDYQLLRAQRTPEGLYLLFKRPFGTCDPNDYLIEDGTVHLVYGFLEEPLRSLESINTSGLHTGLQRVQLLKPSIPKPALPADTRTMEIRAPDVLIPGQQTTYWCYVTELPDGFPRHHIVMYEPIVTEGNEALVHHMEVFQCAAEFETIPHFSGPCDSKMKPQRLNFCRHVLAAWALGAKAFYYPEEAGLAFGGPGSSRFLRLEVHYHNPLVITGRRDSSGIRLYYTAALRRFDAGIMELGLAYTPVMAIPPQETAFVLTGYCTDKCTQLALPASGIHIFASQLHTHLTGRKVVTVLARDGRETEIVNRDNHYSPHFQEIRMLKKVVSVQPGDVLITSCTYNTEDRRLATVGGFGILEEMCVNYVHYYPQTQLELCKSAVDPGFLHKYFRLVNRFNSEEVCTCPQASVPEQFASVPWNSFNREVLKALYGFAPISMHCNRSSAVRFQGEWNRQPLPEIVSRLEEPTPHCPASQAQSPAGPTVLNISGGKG
Procedure: Listed in Table I are Formula (I) compounds that were tested for in vitro DBH inhibition by a standard procedure for assaying conversion of tyramine to octopamine in the presence of DBH. J. J. Pisano, et al., Biochim. Biophys. 43, 566-568 (1960). Octopamine was assayed following sodium periodate oxidation to p-hydroxybenzaldehyde by measuring spectrophotometric absorbance at 330 nm. Inhibition is given in molar concentration of compound at which DBH activity was halved (IC50).

IC50 (DBH): 1800 µM
SMILES: Cl.Cl.NCCSc1nccn1Cc1cc(F)cc(F)c1 [2-(2-Aminoethylthio)-1-(3,5-difluorobenzyl)imidazole Dihydrochloride]
maximal blood pressure reduction ([1]; mean arterial blood pressure, femoral artery cannula): approximately 10 mmHg
blood pressure reduction compared to vehicle treated controls ([1]; monitored for four hours): significant blood pressure reductions
time of lowest blood pressures after administration ([1]; monitored for four hours): 3 to 4 h
time to significant blood pressure reductions ([1]; vs vehicle treated controls): ≤ 30 min
